We go through 4 molecules from US20130053434A1, “IRREVERSIBLE INHIBITORS USEFUL FOR THE TREATMENT OF KINASE-RELATED PATHOLOGIES” (CENTRE NATIONAL DE LA RECHERCHE SCIENTIFIQUE, priority 2009, published 2013).

Data set [1] addresses T1, VEGFR2 (Homo sapiens, UniProt P35968). The data set is described as follows: cellular inhibition of VEGFR2. The note with it: triplicate. The format is cell-based. How it is done: FIG. 21. […] Assays were performed in triplicate.
To gage the undiscriminate reactivity of these enone resorcylic acids with thiols, fluoroenone 2 and the parent analogue lacking the fluoride were treated with one equivalent of DTT (2 mM) as a prototypical thiol nucleophile in PBS (pH 7.4) containing 1% DMSO. […] With fluoroenone 1 and 2 in hand, we tested their efficacy against VEGF-R2 which was frequently found to be the most inhibited kinase in our profile of cis-enone resorcylic acid library (Dakas, P. Y., et al. (2007) Angew. Chem. Int. Ed. Engl. 46, 6899-902; Jogireddy, R., et al. (2009) Chem. Eur. J. 15, 11498-506) and KIT which represents a less inhibited kinase. […] Their cellular activity against VEGF-R2 did parallel the biochemical activity. […] During the course of our investigation, a similar modification was reported by researchers from Esai (Du, H., et al. (2009) Bioorg. Med. Chem. Lett. 19, 6196-9) however, their medicinal chemistry efforts focused the inhibition of inflammation related pathways (MEKs and their down-stream regulatory effect on cytokines) (Du, H., et al. (2009) Bioorg. Med. Chem. Lett. 19, 6196-9; Goto, M., et al. (2009) J. Pharmacol. Exp. Ther. 331, 485-95). […]

The target in data set [2] is T1, VEGFR2. The data set is described as follows: biochemical inhibition of VEGF-R2. Conditions: FIG. 20. The procedure: It should be noted that as these compounds are expected to be irreversible inhibitors, the measured IC50 will depend on the procedure used and caution should be applied in comparing data from experiments performed under different conditions. To obtain a value which best reflects the rate of inactivation, the substrate and inhibitor were added simultaneously to the kinase solution. The data is shown in FIG. 9 (kinases have been ranked from the highest to least inhibited). As evident from FIG. 9, there is very little difference in relative selectivity of kinase inhibition throughout the library under these conditions. […] Overall, the trend of structure activity relationship which emerged from this screen is that the chiral methyl group at the ester position, while not essential, does provide higher activity (entry 6 vs. 10, 7 vs. 11 and 8 vs. 12). Substitution at the adjacent position with a hydroxyl group (entry 14 vs. 7) or at the β-position of the enone with a methyl abrogated activity (15-19). […] The trend of activity for the three natural products can be ranked as follows: alkene=epoxide>alkane. […] The two modifications of R^2 tested were beneficial in certain combinations. For example, the extra hydroxyl group present in fragment i does afford a significant (10 fold) gain of activity (8 vs. 7) in combination with fragment a. […]

A short description of data set [3]: isomerization of the enone under acid deprotection conditions. Conditions: prolonged reaction times. The class given is physicochemical. From the text: The synthesis commenced with the straightforward conversion of ester 5 into fluoroenal 7 via aldehyde 6 relying on a Horner-Wadsworth-Emmons reaction with triethyl 2-fluoro-2-phosphonoacetate to install the desired E-fluoroenoal (FIG. 19). Reaction of aldehyde 7 with […] afforded the desired alcohol as a 1:1 diasteromeric mixture which was reduced to the cis-alkene using Lindlar's catalyst (H2, Pd/CaCO3) to afford compound 9. As the hydroxyl group will ultimately be oxidized to the ketone, the lack of selectivity is inconsequential. Benzoyl protection of alcohol 9 thus afforded 10 wherein the terminal OPMB was converted to an iodide 11 (DDQ; I2, PPh3, imidazole). Attempts to engage this compound in alkylation chemistry with a phenol led to rapid elimination of the iodide to give a conjugated triene (product not shown). To circumvent this elimination which was thought to be facilitated by the presence of the alkene, compound 10 was dihydroxylated (2.5:1 dr in favor of the desired isomer 12) and converted to acetonide 13. Conversion of the terminal protected PMB ether into an iodide afforded the key intermediate 14. Following previously established chemistry, fragment 14 was coupled to the aromatic moiety 15 bearing a benzylic selenide by alkylation followed by oxidation/elimination of the selenide to afford 17. […]

A further data set in a line: plasma half-life. The class given is in vitro ADME.
In another data set the target is MEK (Homo sapiens, UniProt Q02750). Conditions: reported values; read-out: MEK inhibition; cited from earlier work.
Data set [4] is described as follows: inactivation by thiols such as DTT or GST. The format is in vitro ADME.
Another data set deals with ERK2 (Homo sapiens, UniProt P28482). The note with it: Nakajima and Miyake; cited from earlier work.
For data set [5] the following is noted: in vivo; cited from earlier work.
For the next data set, the target named is MEK1 (Homo sapiens, UniProt Q02750). Conditions: cited from earlier work.
Data set [6] is described as follows: reactivity with DTT as prototypical thiol nucleophile. Conditions: one equivalent of DTT (2 mM), PBS pH 7.4, 1% DMSO. The class given is physicochemical. How it is done:
To gage the undiscriminate reactivity of these enone resorcylic acids with thiols, fluoroenone 2 and the parent analogue lacking the fluoride were treated with one equivalent of DTT (2 mM) as a prototypical thiol nucleophile in PBS (pH 7.4) containing 1% DMSO. […] With fluoroenone 1 and 2 in hand, we tested their efficacy against VEGF-R2 which was frequently found to be the most inhibited kinase in our profile of cis-enone resorcylic acid library (Dakas, P. Y., et al. (2007) Angew. Chem. Int. Ed. Engl. 46, 6899-902; Jogireddy, R., et al. (2009) Chem. Eur. J. 15, 11498-506) and KIT which represents a less inhibited kinase. […] Their cellular activity against VEGF-R2 did parallel the biochemical activity. […] During the course of our investigation, a similar modification was reported by researchers from Esai (Du, H., et al. (2009) Bioorg. Med. Chem. Lett. 19, 6196-9) however, their medicinal chemistry efforts focused the inhibition of inflammation related pathways (MEKs and their down-stream regulatory effect on cytokines) (Du, H., et al. (2009) Bioorg. Med. Chem. Lett. 19, 6196-9; Goto, M., et al. (2009) J. Pharmacol. Exp. Ther. 331, 485-95). […] It was further shown that the addition of a methyl substituent at the δ position to the enone enhanced the metabolic stability with a tolerable loss of activity (10 fold) (Du, H., et al. (2009) Bioorg. Med. Chem. Lett. 19, 6196-9). […]

T1 sequence (P35968 20-1356, species assumed): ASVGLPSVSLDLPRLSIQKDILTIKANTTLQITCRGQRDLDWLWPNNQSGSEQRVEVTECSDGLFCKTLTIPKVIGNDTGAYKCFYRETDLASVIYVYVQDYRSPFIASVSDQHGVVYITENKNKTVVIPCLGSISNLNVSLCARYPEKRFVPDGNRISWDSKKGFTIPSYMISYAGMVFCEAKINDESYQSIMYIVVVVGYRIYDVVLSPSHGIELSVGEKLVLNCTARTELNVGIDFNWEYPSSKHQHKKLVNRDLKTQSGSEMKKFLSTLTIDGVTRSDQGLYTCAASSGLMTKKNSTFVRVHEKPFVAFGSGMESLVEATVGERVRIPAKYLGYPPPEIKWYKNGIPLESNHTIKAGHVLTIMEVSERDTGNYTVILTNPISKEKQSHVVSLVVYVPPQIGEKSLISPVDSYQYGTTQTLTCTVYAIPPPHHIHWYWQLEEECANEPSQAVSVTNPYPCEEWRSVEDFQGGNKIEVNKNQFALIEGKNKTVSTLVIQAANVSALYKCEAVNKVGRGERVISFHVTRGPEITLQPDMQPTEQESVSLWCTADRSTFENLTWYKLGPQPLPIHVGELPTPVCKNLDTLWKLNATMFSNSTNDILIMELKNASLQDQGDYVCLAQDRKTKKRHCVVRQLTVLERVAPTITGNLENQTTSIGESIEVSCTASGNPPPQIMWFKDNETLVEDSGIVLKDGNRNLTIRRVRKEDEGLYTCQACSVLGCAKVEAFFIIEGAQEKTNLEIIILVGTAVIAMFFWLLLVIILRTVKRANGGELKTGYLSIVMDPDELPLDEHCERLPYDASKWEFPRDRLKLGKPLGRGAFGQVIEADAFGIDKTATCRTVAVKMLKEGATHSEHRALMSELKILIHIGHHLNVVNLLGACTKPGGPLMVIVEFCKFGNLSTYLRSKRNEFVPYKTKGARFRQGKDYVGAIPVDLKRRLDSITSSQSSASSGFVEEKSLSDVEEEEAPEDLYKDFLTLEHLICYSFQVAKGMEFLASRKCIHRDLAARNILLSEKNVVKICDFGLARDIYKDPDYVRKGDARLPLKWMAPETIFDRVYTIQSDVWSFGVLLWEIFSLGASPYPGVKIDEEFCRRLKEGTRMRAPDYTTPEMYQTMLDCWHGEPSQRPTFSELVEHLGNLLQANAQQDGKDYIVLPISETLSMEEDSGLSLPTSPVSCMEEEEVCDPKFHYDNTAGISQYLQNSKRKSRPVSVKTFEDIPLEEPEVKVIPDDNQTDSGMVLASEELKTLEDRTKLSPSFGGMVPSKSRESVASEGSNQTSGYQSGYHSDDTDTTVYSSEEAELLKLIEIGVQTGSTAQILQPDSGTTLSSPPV
Chain of ERK2 (P28482 whole entry, species assumed): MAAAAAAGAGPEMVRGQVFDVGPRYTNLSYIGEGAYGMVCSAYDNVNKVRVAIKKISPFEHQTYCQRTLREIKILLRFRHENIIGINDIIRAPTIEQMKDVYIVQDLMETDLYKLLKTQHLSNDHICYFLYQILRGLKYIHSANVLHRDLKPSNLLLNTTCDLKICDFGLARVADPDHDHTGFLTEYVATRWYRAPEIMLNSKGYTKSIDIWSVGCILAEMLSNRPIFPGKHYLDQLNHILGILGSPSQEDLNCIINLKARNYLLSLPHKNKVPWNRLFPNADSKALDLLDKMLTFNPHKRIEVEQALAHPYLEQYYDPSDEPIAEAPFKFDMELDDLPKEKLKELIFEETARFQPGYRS
Chain of MEK (Q02750 whole entry): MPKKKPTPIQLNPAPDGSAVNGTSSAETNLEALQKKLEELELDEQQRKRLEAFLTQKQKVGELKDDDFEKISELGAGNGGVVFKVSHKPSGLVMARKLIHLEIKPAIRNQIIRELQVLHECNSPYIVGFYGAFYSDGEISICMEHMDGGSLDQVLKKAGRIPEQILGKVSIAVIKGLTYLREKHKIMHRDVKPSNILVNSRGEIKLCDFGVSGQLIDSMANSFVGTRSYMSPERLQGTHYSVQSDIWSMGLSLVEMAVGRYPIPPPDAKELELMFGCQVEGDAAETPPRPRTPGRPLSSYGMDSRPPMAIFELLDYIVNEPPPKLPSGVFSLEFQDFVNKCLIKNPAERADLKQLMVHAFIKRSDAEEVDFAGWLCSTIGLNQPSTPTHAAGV
Chain of MEK1 (Q02750 whole entry): as above

For `C[C@H]1C/C=C(/F)C(=O)[C@@H](O)[C@@H](O)C/C=C/c2cc(O)cc(O)c2C(=O)O1` [fluoroenone 1], the IC50 was found to be 17 nM on VEGFR2 [1] and 6.8 nM at VEGFR2 [2]. Moreover, the “isomerization (epimerization) of the fluoroenone” value in data set [3] is on record as “no trace of isomerization was observed”.

Regarding `COc1cc(O)c2c(c1)/C=C/C[C@H](O)[C@H](O)C(=O)/C=C\C[C@H](C)OC2=O` [LL-Z1640-2], the IC50 against VEGFR2 [1] was 6.5 nM; at MEK, 411 nM. Also, the plasma half-life entry in the data set “plasma half-life” was “short plasma half-life”. For the same molecule, the inactivation by thiols entry in [4] is “inactivated by thiols such as DTT or GST”. Besides, the “difference in activity between LL-Z1640-2 and L-783277 in inhibition of ERK2” value at ERK2 is reported as 50 fold. Besides, in data set [5], the “efficacy in animal models” value is recorded as “effective in animal models”.

`CCNc1cc(O)c2c(c1)/C=C/C[C@H](O)[C@H](O)C(=O)/C=C\[C@@H](C)[C@H](C)OC2=O` [E6201]: the “selectivity for MEK1 relatively to PDGFRβ” value at MEK1 was greater than 200 fold.

With `C[C@H]1C/C=C(/F)C(=O)[C@@H](O)[C@@H](O)CCOc2cc(O)cc(O)c2C(=O)O1` [fluoroenone 2], at VEGFR2 [2], the IC50 was 60.5 nM. Further, the “reactivity with DTT compared with parent analogue lacking the fluoride” value in [6] was “reacting slower”.
